Source: US20100215822A1, “MOUTHFEEL ENHANCING INGREDIENTS” (Firmenich SA, priority 2007, published 2010)
Entries after “also recorded” stand apart in the source; their conditions may differ. Like-named read-outs stand apart in the source and are kept apart here.

How the values were obtained:
[1] = system: skilled panelists; test: Evaluation of the mouthfeel enhancer in Diet Cola, tasted blind by panel; format: in vivo; conditions: for Overall result: deliver the mouthfeel required in the reduced-sugar beverage without further generating undesirable off-notes: 5 mg in 300 mL Diet Cola; for Results (mouthfeel, sweetness, off-notes and other descriptors): 5 mg in 300 mL commercial Diet Cola, tasted blind by 4-5 skilled panelists by comparison with Diet Cola without mouthfeel enhancer (reference)
[2] = Solubility observed in Diet Cola samples
Method: 5 mg of each of the following compounds, all obtained from Avanti Polar Lipids, Inc., Alabama, USA was added to 300 mL of a commercially available Diet Cola in a bottle. The bottles were then closed and shaken by hand for 1 min at room temperature. Following this, the bottles were sonicated for 5 min in an ultrasonic bath and then stored at room temperature overnight. All samples were tasted blind by 4-5 skilled panelists and assessed, by comparison with a Diet Cola not containing any mouthfeel enhancer, for mouthfeel, sweetness, off-notes and other descriptors.

Compound: CCCCCCCCCCCCCCCC(=O)OC[C@H](COP(=O)(O)O)OC(=O)CCCCCCCCCCCCCCC [Dipalmitoylphosphatidic acid]
- Overall result: deliver the mouthfeel required in the reduced-sugar beverage without further generating undesirable off-notes [1]: Excellent results
- Results (mouthfeel, sweetness, off-notes and other descriptors) [1]: smooth, good mouthfeel, slightly oily, no off-note; also recorded: More mouthfeel, fatty, fuller, heavy, sweeter,

Compound: CCCCCCCCCCCCCC(=O)OC[C@H](COP(=O)([O-])OCC[N+](C)(C)C)OC(=O)CCCCCCCCCCCCC [Dimyristoylphosphatidylcholine]
- Overall result: deliver the mouthfeel required in the reduced-sugar beverage without further generating undesirable off-notes [1]: Excellent results
- Results (mouthfeel, sweetness, off-notes and other descriptors) [1]: carbonated, sweeter

Compound: CCCCCCCC/C=C\CCCCCCCC(=O)OC[C@H](COP(=O)(O)OCC(O)CO)OC(=O)CCCCCCC/C=C\CCCCCCCC (stereo partly shown) [Dioleoylphosphatidyl glycerol]
- Results (mouthfeel, sweetness, off-notes and other descriptors) [1]: chemical, slight off-note on taste

Compound: CCCCCCCC/C=C\CCCCCCCC(=O)OC[C@H](COP(=O)(O)O)OC(=O)CCCCCCC/C=C\CCCCCCCC [Dioleoylphosphatidic acid]
- Results (mouthfeel, sweetness, off-notes and other descriptors) [1]: More mouthfeel, fatty, fuller, very drying,; also recorded: mouthcoating, less lingering, oily

Compound: CCCCCC(=O)OC[C@H](COP(=O)(O)OCC[N+](C)(C)C)OC(=O)CCCCC [Dicaproylphosphatidyl choline]
- Overall result: deliver the mouthfeel required in the reduced-sugar beverage without further generating undesirable off-notes [1]: Excellent results
- Results (mouthfeel, sweetness, off-notes and other descriptors) [1]: More acidity than others, sweeter, smoother, fuller,; also recorded: more mouthfeel, similar mouthfeel

Compound: CCCCCC(=O)OCC(COP(=O)(O)O)OC(=O)CCCCC (stereo not shown) [Dicaproylphosphatidic acid]
- Results (mouthfeel, sweetness, off-notes and other descriptors) [1]: Thin, typical diet cola, slight metallic off-note, and sweet, acidic, more lemon, lingering/long lasting, and oily

Compound: CCCCCCCCCCCCCCCC(=O)OCC(O)COP(=O)(O)OCC(O)CO (stereo not shown) [1-Palmitoyl-2-hydroxy-glycero-3-phosphoglycerol]
- Results (mouthfeel, sweetness, off-notes and other descriptors) [1]: slightly more mouthfeel, creamy, similar to reference

Compound: CCCCCCCC/C=C\CCCCCCCC(=O)OCC(O)COP(=O)(O)OCC(O)CO (stereo not shown) [1-Oleoyl-2-hydroxy-glycero-3-phosphoglycerol]
- Results (mouthfeel, sweetness, off-notes and other descriptors) [1]: less sour, more sweet, similar to reference

Compound: Dicaprylphosphatidylcholine
- Overall result: deliver the mouthfeel required in the reduced-sugar beverage without further generating undesirable off-notes [1]: Excellent results
- Results (mouthfeel, sweetness, off-notes and other descriptors) [1]: More mouthfeel, good mouthfeel, more body,; also recorded: creamy, sl. more sweet, good sweetness

Compound: CCCCCCCCCCCCCCCC(=O)OCC(COP(=O)(O)OCCN)OC(=O)CCCCCCCCCCCCCCC (stereo not shown) [Dipalmitoylphosphatidyl ethanolamine]
- Results (mouthfeel, sweetness, off-notes and other descriptors) [1]: less flavor, lingering fatty
- Solubility in Diet Cola ([2]; 5 mg in 300 mL Diet Cola, shaken 1 min, sonicated 5 min, stored at room temperature overnight): completely soluble

Compound: CCCCCCCC(=O)OC[C@H](COP(=O)([O-])OCC[N+](C)(C)C)OC(=O)CCCCCCC [Dicapryloylphosphatidylcholine]
- Results (mouthfeel, sweetness, off-notes and other descriptors) [1]: Some mouthfeel, similar to reference, slight off-note

Compound: CCCCCCCCCCCC(=O)OC[C@H](COP(=O)([O-])OCC[N+](C)(C)C)OC(=O)CCCCCCCCCCC [Dilauroylphosphatidyl choline]
- Overall result: deliver the mouthfeel required in the reduced-sugar beverage without further generating undesirable off-notes [1]: Excellent results

Compound: CCCCCCCCCCCCCCCC(=O)OC[C@H](COP(=O)([O-])OCC[N+](C)(C)C)OC(=O)CCCCCCCCCCCCCCC [Dipalmitoylphosphatidyl choline]
- Overall result: deliver the mouthfeel required in the reduced-sugar beverage without further generating undesirable off-notes [1]: Excellent results
- Results (mouthfeel, sweetness, off-notes and other descriptors) [1]: Sweeter, nice sweetness but lingering, good; also recorded: difference, slightly fuller, slightly fatty

Compound: CCCCCCCCCCCC(=O)OC[C@H](COP(=O)(O)OCCN)OC(=O)CCCCCCCCCCC [Dilauroylphosphatidyl ethanolamine]
- Results (mouthfeel, sweetness, off-notes and other descriptors) [1]: Very similar to reference, slightly fuller, sweeter,; also recorded: citrusy

Compound: CCCCCCCCCCCC(=O)OC[C@H](COP(=O)(O)O)OC(=O)CCCCCCCCCCC [Dilauroylphosphatidic acid]
- Results (mouthfeel, sweetness, off-notes and other descriptors) [1]: More Mouthfeel, fatty, fuller, clean, acidic, more; also recorded: sour and harsh, oily

Compound: CCCCCCCC/C=C\CCCCCCCC(=O)OC[C@H](COP(=O)(O)OCCN)OC(=O)CCCCCCC/C=C\CCCCCCCC [Dioleoylphosphatidyl ethanolamine]
- Results (mouthfeel, sweetness, off-notes and other descriptors) [1]: Slightly sweeter, slightly more bitter, fatty/waxy off-
- Solubility in Diet Cola [2]: not completely soluble

Compound: CCCCCCCCCCCCCCCC(=O)OCC(COP(=O)(O)OCC(O)CO)OC(=O)CCCCCCCCCCCCCCC (stereo not shown) [Dipalmitoylphosphatidyl glycerol]
- Overall result: deliver the mouthfeel required in the reduced-sugar beverage without further generating undesirable off-notes [1]: Excellent results
- Results (mouthfeel, sweetness, off-notes and other descriptors) [1]: Seems less carbonated, less acidic, more citrusy; also recorded: aroma, better mouthfeel, less metallic, good; also recorded: no off-note

Compound: CCCCCC(=O)OC[C@H](COP(=O)(O)OCCN)OC(=O)CCCCC [Dicaproylphosphatidyl ethanolamine]
- Results (mouthfeel, sweetness, off-notes and other descriptors) [1]: Quite metallic, slightly more fatty, sweet lingering,; also recorded: thin, less sweet, less flavor, lingering fatty taste;

Compound: CCCCCCCCCCCC(=O)OCC(COP(=O)(O)OCC(O)CO)OC(=O)CCCCCCCCCCC (stereo not shown) [Dilauroylphosphatidyl glycerol]
- Results (mouthfeel, sweetness, off-notes and other descriptors) [1]: Sweeter, similar to reference, fatty, off-note, waxy,; also recorded: good sweetness, slightly flat aroma

Compound: CCCCCCCCCC(=O)OC[C@@H](O)COP(=O)([O-])OCC[N+](C)(C)C [1-Capryl-2-hydroxy-glycero-3-phosphocholine]
- Results (mouthfeel, sweetness, off-notes and other descriptors) [1]: slightly more mouthfeel, close to reference
